Test results reported in the supplement of paper PMC10307832.

Legend:
Assay in all cases: relative viability (nuclei count vs DMSO), 5 days (fraction); higher = more cells survive
201T = tested on: 201T
Procedure, shortened: (§1)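 Each reported value is a median over duplicate plates. It expresses relative viability: treated-well nuclei count divided by vehicle-well nuclei count. Lung cancer cell lines in 1536-well plates were dosed by pin tool a day after seeding, alone with one drug or with a fixed anchor-drug dose plus five library-drug doses (not always all listed) in √10 steps, and nuclei were counted after 5 days.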

BEN = tested on: BEN
Procedure, shortened: as §1

COR-L 105 = tested on: COR-L 105
Procedure, shortened: as §1

EKVX = tested on: EKVX
Procedure, shortened: as §1

EPLC-272H = tested on: EPLC-272H
Procedure, shortened: as §1

H3255 = tested on: H3255
Procedure, shortened: as §1

HCC-44 = tested on: HCC-44
Procedure, shortened: as §1

HCC-827 = tested on: HCC-827
Procedure, shortened: as §1

LCLC-97TM1 = tested on: LCLC-97TM1
Procedure, shortened: as §1

LOU-NH91 = tested on: LOU-NH91
Procedure, shortened: as §1

LU99A = tested on: LU99A
Procedure, shortened: as §1

NCI-H1437 = tested on: NCI-H1437
Procedure, shortened: as §1

NCI-H1666 = tested on: NCI-H1666
Procedure, shortened: as §1

NCI-H1975 = tested on: NCI-H1975
Procedure, shortened: as §1

NCI-H2085 = tested on: NCI-H2085
Procedure, shortened: as §1

NCI-H2087 = tested on: NCI-H2087
Procedure, shortened: as §1

NCI-H2170 = tested on: NCI-H2170
Procedure, shortened: as §1

NCI-H2342 = tested on: NCI-H2342
Procedure, shortened: as §1

NCI-H647 = tested on: NCI-H647
Procedure, shortened: as §1

NCI-H650 = tested on: NCI-H650
Procedure, shortened: as §1

PC-3 [JPC-3] = tested on: PC-3 [JPC-3]
Procedure, shortened: as §1

SW 1573 = tested on: SW 1573
Procedure, shortened: as §1

Work on `COc1nc(C)cnc1NS(=O)(=O)c1cccnc1-c1ccc(-c2nnco2)cc1` [Zibotentan] + CC(=O)Nc1cccc(-n2c(=O)n(C3CC3)c(=O)c3c(Nc4ccc(I)cc4F)n(C)c(=O)c(C)c32)c1 [Trametinib] (partner 0.02 µM) yielded a relative viability (201T; first compound 0.08 µM) of 0.714, a relative viability (201T; first compound 0.253 µM) of 0.714 and a relative viability (201T; first compound 0.8 µM) of 0.734. It also gave a relative viability (201T; first compound 2.53 µM) of 0.746, a relative viability (BEN; first compound 0.08 µM) of 1.04 and a relative viability (BEN; first compound 0.253 µM) of 0.926. It also gave a relative viability (BEN; first compound 0.8 µM) of 0.832, a relative viability (BEN; first compound 2.53 µM) of 0.979 and a relative viability (COR-L 105; first compound 0.08 µM) of 0.403. The relative viability (COR-L 105; first compound 0.253 µM) was 0.411, the relative viability (COR-L 105; first compound 0.8 µM) was 0.482 and the relative viability (COR-L 105; first compound 2.53 µM) was 0.475. The relative viability (EKVX; first compound 0.08 µM) was 0.33, the relative viability (EKVX; first compound 0.253 µM) was 0.364 and the relative viability (EKVX; first compound 0.8 µM) was 0.315. The relative viability (EKVX; first compound 2.53 µM) was 0.321, the relative viability (EPLC-272H; first compound 0.08 µM) was 0.287 and the relative viability (EPLC-272H; first compound 0.253 µM) was 0.234. For the same compound, the relative viability (EPLC-272H; first compound 0.8 µM) was 0.31, the relative viability (EPLC-272H; first compound 2.53 µM) was 0.312 and the relative viability (H3255; first compound 0.08 µM) was 0.659. For the same compound, the relative viability (H3255; first compound 0.253 µM) was 0.607, the relative viability (H3255; first compound 0.8 µM) was 0.667 and the relative viability (H3255; first compound 2.53 µM) was 0.626. It also gave a relative viability (HCC-44; first compound 0.08 µM) of 1.11, a relative viability (HCC-44; first compound 0.253 µM) of 1 and a relative viability (HCC-44; first compound 0.8 µM) of 0.953. It also gave a relative viability (HCC-44; first compound 2.53 µM) of 1.07, a relative viability (HCC-827; first compound 0.08 µM) of 0.503 and a relative viability (HCC-827; first compound 0.253 µM) of 0.529. It also gave a relative viability (HCC-827; first compound 0.8 µM) of 0.491, a relative viability (HCC-827; first compound 2.53 µM) of 0.548 and a relative viability (LCLC-97TM1; first compound 0.08 µM) of 0.217. For the same compound, the relative viability (LCLC-97TM1; first compound 0.253 µM) was 0.213, the relative viability (LCLC-97TM1; first compound 0.8 µM) was 0.198 and the relative viability (LCLC-97TM1; first compound 2.53 µM) was 0.2. The relative viability (LOU-NH91; first compound 0.08 µM) was 0.777, the relative viability (LOU-NH91; first compound 0.253 µM) was 0.814 and the relative viability (LOU-NH91; first compound 0.8 µM) was 0.817. For the same compound, the relative viability (LOU-NH91; first compound 2.53 µM) was 0.816, the relative viability (LU99A; first compound 0.08 µM) was 0.598 and the relative viability (LU99A; first compound 0.253 µM) was 0.547. The relative viability (LU99A; first compound 0.8 µM) was 0.537, the relative viability (LU99A; first compound 2.53 µM) was 0.585 and the relative viability (NCI-H1437; first compound 0.08 µM) was 0.533. It also gave a relative viability (NCI-H1437; first compound 0.253 µM) of 0.541, a relative viability (NCI-H1437; first compound 0.8 µM) of 0.455 and a relative viability (NCI-H1437; first compound 2.53 µM) of 0.496. It also gave a relative viability (NCI-H1666; first compound 0.08 µM) of 0.882, a relative viability (NCI-H1666; first compound 0.253 µM) of 0.779 and a relative viability (NCI-H1666; first compound 0.8 µM) of 0.821. For the same compound, the relative viability (NCI-H1666; first compound 2.53 µM) was 0.863, the relative viability (NCI-H1975; first compound 0.08 µM) was 0.336 and the relative viability (NCI-H1975; first compound 0.253 µM) was 0.355. For the same compound, the relative viability (NCI-H1975; first compound 0.8 µM) was 0.358, the relative viability (NCI-H1975; first compound 2.53 µM) was 0.34 and the relative viability (NCI-H2085; first compound 0.08 µM) was 0.533. The relative viability (NCI-H2085; first compound 0.253 µM) was 0.448, the relative viability (NCI-H2085; first compound 0.8 µM) was 0.541 and the relative viability (NCI-H2085; first compound 2.53 µM) was 0.489. The relative viability (NCI-H2087; first compound 0.08 µM) was 0.192, the relative viability (NCI-H2087; first compound 0.253 µM) was 0.146 and the relative viability (NCI-H2087; first compound 0.8 µM) was 0.246. The relative viability (NCI-H2087; first compound 2.53 µM) was 0.208, the relative viability (NCI-H2170; first compound 0.08 µM) was 0.966 and the relative viability (NCI-H2170; first compound 0.253 µM) was 0.897. It also gave a relative viability (NCI-H2170; first compound 0.8 µM) of 0.903, a relative viability (NCI-H2170; first compound 2.53 µM) of 0.908 and a relative viability (NCI-H2342; first compound 0.08 µM) of 0.848. It also gave a relative viability (NCI-H2342; first compound 0.253 µM) of 0.78, a relative viability (NCI-H2342; first compound 0.8 µM) of 0.844 and a relative viability (NCI-H2342; first compound 2.53 µM) of 1.16. It also gave a relative viability (NCI-H647; first compound 0.08 µM) of 0.452, a relative viability (NCI-H647; first compound 0.253 µM) of 0.42 and a relative viability (NCI-H647; first compound 0.8 µM) of 0.431. For the same compound, the relative viability (NCI-H647; first compound 2.53 µM) was 0.532, the relative viability (NCI-H650; first compound 0.08 µM) was 1.06 and the relative viability (NCI-H650; first compound 0.253 µM) was 1.04. The relative viability (NCI-H650; first compound 0.8 µM) was 0.967, the relative viability (NCI-H650; first compound 2.53 µM) was 0.844 and the relative viability (PC-3 [JPC-3]; first compound 0.08 µM) was 0.628. It also gave a relative viability (PC-3 [JPC-3]; first compound 0.253 µM) of 0.508, a relative viability (PC-3 [JPC-3]; first compound 0.8 µM) of 0.723 and a relative viability (PC-3 [JPC-3]; first compound 2.53 µM) of 0.715. For the same compound, the relative viability (SW 1573; first compound 0.08 µM) was 0.548, the relative viability (SW 1573; first compound 0.8 µM) was 0.411 and the relative viability (SW 1573; first compound 2.53 µM) was 0.729.
